From patent publication US8080577B2, “Diindolylmethane formulations for the treatment of leiomyomas” (Bioresponse, L.L.C., priority 2004, dated 2011)
Entries after “also recorded” stand apart in the source; their conditions may differ.

What was measured:
Assay type in all cases: in vivo, human
[1] = test system: estrogen metabolites in urine; test: GCMS assay of urinary estrogen metabolites before and after DIM treatment
[2] = test system: uterine leiomyoma; test: Clinical case: oral absorption-enhanced DIM in a person with symptomatic uterine leiomyoma; details: after two months
Method: A person was symptomatic from uterine leiomyoma, experiencing painful menses with excessive bleeding, frequency of urination, and inability to exercise due to tiredness. […] A blood test indicated mild anemia. […] The patient initiated therapy with capsules of DIM, formulated for enhanced absorption as described in Example 1. A dose of 120 mg of DIM formulation, given three times per day, delivering 30 mg of actual DIM per dose, was used.

[3] = test system: uterine leiomyomas; test: Oral absorption-enhanced DIM in women with uterine leiomyomas, tumor volume by serial pelvic ultrasound; details: for Post-DIM Treatment Tumor Volume: oral absorption-enhanced DIM
Method: Expected results are clinical improvement in symptoms and reduction of leiomyoma size documented in serial sonograms. […] Women with uterine leiomyomas have been selected based on the findings of abnormal uterine sonograms showing measurable leiomyoma documented on more than one occasion. Three subjects were proceeding to provide a baseline 12-hour urine collection and began to take absorbable DIM 150 to 450 mg [37.5-112 mg actual DIM] twice daily for 3-6 months. Two women have completed participation in a preliminary study, completing 2 and 6 month treatment periods. Subject A was a multiparous person with regular menstrual periods, taking thyroid hormone replacement to correct primary hypothyroidism and using no other medications. Subject B was a person taking no medications with regular periods. After informed consent, a pretreatment ultrasound was obtained for each subject. Each subject provided a 12 or 24 hour urine specimen which was frozen. Subject A began taking 2 capsules twice daily of absorption-enhanced DIM (BioResponse, LLC, Boulder Colo.) providing DIM at […]. Subject B took 3 capsules twice daily of absorption-enhanced DIM (BioResponse, LLC, Boulder Colo.) providing DIM at […]. After 2 months of treatment, Subject A was re-evaluated by the same ultrasound technician using the same equipment and at the same phase of their menstrual cycle. A post treatment urine was also obtained, collected at the same point in the menstrual cycle as the baseline urine sample. Similarly, Subject B was re-evaluated after 6 months of treatment using absorption-enhanced DIM (BioResponse-DIM). They took a higher twice daily dose providing […]. Their re-evaluation included pelvic ultrasonography following a series of 3 pre-treatment pelvic ultrasound evaluations all performed with the same equipment. Like Subject A, Subject B provided a before and after DIM treatment urine sample. The pelvic ultrasound data were analysed using a mathematical formula to calculate the pre-treatment and post-treatment volume of individual leiomyoma based on the widest diameter and the diameter perpendicular to this measured in centimeters (cm). A calculation of individual tumor volume was performed, treating each tumor as an ovoid mass, using the formula: V=4/3π(H/2)^2(L/2), where V=volume in cubic centimeters (cm^3), H=tumor height in centimeters (cm), and L=tumor length in centimeters (cm). This method provided individual tumor volumes in cubic centimeters (cm^3).

[4] = test system: estrogen metabolites in urine; test: GCMS assay of urinary estrogen metabolites before and after DIM treatment; details: after vs before DIM
Method: After informed consent, a pretreatment ultrasound was obtained for each subject. Each subject provided a 12 or 24 hour urine specimen which was frozen. Subject A began taking 2 capsules twice daily of absorption-enhanced DIM (BioResponse, LLC, Boulder Colo.) providing DIM at […]. Subject B took 3 capsules twice daily of absorption-enhanced DIM (BioResponse, LLC, Boulder Colo.) providing DIM at […]. After 2 months of treatment, Subject A was re-evaluated by the same ultrasound technician using the same equipment and at the same phase of their menstrual cycle. A post treatment urine was also obtained, collected at the same point in the menstrual cycle as the baseline urine sample. Similarly, Subject B was re-evaluated after 6 months of treatment using absorption-enhanced DIM (BioResponse-DIM). They took a higher twice daily dose providing […]. Their re-evaluation included pelvic ultrasonography following a series of 3 pre-treatment pelvic ultrasound evaluations all performed with the same equipment. Like Subject A, Subject B provided a before and after DIM treatment urine sample.
The urine samples were tested at the Bradlow/Sepkovic Laboratory, Hackensack University Medical Center, Hackensack, N.J. The technique utilized was an established gas chromatography-mass spectrometry (GCMS) assay for estradiol (E2), estrone (E1), 2-hydroxy estrone (2OH-E1), 4-hydroxy estrone (4OH-E1), 16-hydroxy estrone (16OH-E1), and estriol (E3) in urine (Michnovicz et al., 1997, J Natl Cancer Inst. 89(10):718-23). […] Laboratory analysis is expected to show an increase in 2-hydroxy estrone, and a decrease in 16-hydroxy estrone, as measured in pre-treatment as compared to post-treatment urine samples. […] Results of before and after DIM treatment are presented in Table 8, showing the metabolites of interest as a percent of the total estrogen metabolites measured and as ratios of the amounts of 2OH-E1 to 16OH-E1 (2OH-E1/16OH-E1) determined for each sample. […]

[5] = Subject A, 200 mg/day DIM, taken for 2 months
[6] = Subject B, 300 mg/day DIM, taken for 6 months
[7] = 30 mg actual DIM three times per day

c1ccc2c(Cc3c[nH]c4ccccc34)c[nH]c2c1 [DIM, 3,3′-diindolylmethane]
2OH-E1/16OH-E1 ratio, After DIM [1, 5]: 1.7 | 2OH-Estrone (2OH-E1), percent of total estrogen metabolites measured, After DIM [1, 5]: 8.3% | 4OH-Estrone (4OH-E1), percent of total estrogen metabolites measured, After DIM [1, 5]: 0.7% | 16OH-Estrone (16OH-E1), percent of total estrogen metabolites measured, After DIM [1, 5]: 4.9% | 2OH-E1/16OH-E1 ratio, After DIM [1, 6]: 9.5 | 2OH-Estrone (2OH-E1), percent of total estrogen metabolites measured, After DIM [1, 6]: 35% | 4OH-Estrone (4OH-E1), percent of total estrogen metabolites measured, After DIM [1, 6]: 1.7% | repeat abdominal exam [2, 7]: no visible or palpable pelvic masses | repeat pelvic exam [2, 7]: normal appearing uterine cervix and a palpable uterus of much reduced size | myoma-related symptoms described by the patient ([2]; 120 mg DIM formulation (30 mg actual DIM) three times per day): normal menstrual flow with normal levels of discomfort and improved energy | average percent reduction in tumor volume ([3]; Subject A, 2 month treatment): 33.5% | Percent Decrease in Tumor Volume ([3]; Subject A, Tumor 1, oral DIM 200 mg/day, 2 months): 83.11% | Post-DIM Treatment Tumor Volume ([3]; Subject A, Tumor 1, 200 mg/day DIM, 2 months): 3.783 cm^3 | Percent Decrease in Tumor Volume ([3]; Subject A, Tumor 2, oral DIM 200 mg/day, 2 months): 2.06% | Post-DIM Treatment Tumor Volume ([3]; Subject A, Tumor 2, 200 mg/day DIM, 2 months): 114.4901 cm^3 | Percent Decrease in Tumor Volume ([3]; Subject A, Tumor 3, oral DIM 200 mg/day, 2 months): 15.32% | Post-DIM Treatment Tumor Volume ([3]; Subject A, Tumor 3, 200 mg/day DIM, 2 months): 53.2 cm^3 | average reduction in tumor volume ([3]; Subject B, 6 month treatment): 78.6% | Percent Decrease in Tumor Volume ([3]; Subject B, Tumor 1, oral DIM 300 mg/day, 6 months): 71.9605% | Post-DIM Treatment Tumor Volume ([3]; Subject B, Tumor 1, 300 mg/day DIM, 6 months): 5.575 cm^3 | Percent Decrease in Tumor Volume ([3]; Subject B, Tumor 2, oral DIM 300 mg/day, 6 months): 47.75% | Post-DIM Treatment Tumor Volume ([3]; Subject B, Tumor 2, 300 mg/day DIM, 6 months): 1.877 cm^3 | Percent Decrease in Tumor Volume ([3]; Subject B, Tumor 3, oral DIM 300 mg/day, 6 months): 38.51% | Post-DIM Treatment Tumor Volume ([3]; Subject B, Tumor 3, 300 mg/day DIM, 6 months): 6.094 cm^3 | Percent Decrease in Tumor Volume ([3]; Subject B, Tumor 4, oral DIM 300 mg/day, 6 months): 53.06% | Post-DIM Treatment Tumor Volume ([3]; Subject B, Tumor 4, 300 mg/day DIM, 6 months): 0.8849 cm^3 | Percent Decrease in Tumor Volume ([3]; Subject B, Tumor 5, oral DIM 300 mg/day, 6 months): 62.41% | Post-DIM Treatment Tumor Volume ([3]; Subject B, Tumor 5, 300 mg/day DIM, 6 months): 0.7964 cm^3 | leiomyoma size by serial pelvic ultrasound ([3]; preliminary treatment of women with oral DIM): meaningful reduction of leiomyoma size; also recorded: consistent reduction of intra-uterine leiomyoma size | side effects associated with reduction in leiomyoma volume ([3]; women treated with oral DIM, 2 and 6 months): not associated with amenorrhea, hypo-estrogenemia, hot flashes, or other reported side effects | change in 16OH-E1 ([4]; Subject A): treatment related reduction | change in 4OH-E1 ([4]; Subject B, treated at a higher dose): treatment related reduction | change in 2OH-E1 and the 2OH-E1/16OH-E1 ratio ([4]; both Subjects): large treatment related increases
